SMILES strings stand for the structures. Numbering of substitutions follows the chain as printed.

Assay [1] is described as follows: Titration of FHN-P by aminocaproic acid, Schiff base model reaction (method B). As to conditions: 25° C. As to the method:
Method B is used to titrate FHN-P by aminocaproic acid. For each analysis of TEA buffer containing a fixed concentration of FHN-P (10 μM), aminocaproic acid is added to obtain varying final concentrations (0.01-0.2 M). The differential absorption spectra, corresponding to the formation of a Schiff base, are recorded at different time intervals, then corrected with absorbance of the buffer, the aminocaproic acid and FHN-P (measured separately).
The apparent first-order rate constant (kapp) and the maximum threshold variations of absorption (ΔAmax) are obtained for each test by applying the slow-binding absorption data to the first-order kinetic equation (or to both first-order kinetic mechanisms). The dissociation constant (Kd) for the Schiff base formed between the FHN-P and the aminocaproic acid is obtained from the absorption differences calculated at equilibrium by using the equation eqn.(2). […]
The FHN-P and the ε-amino group of aldolase lysine residues were taken as the model for formation of the Schiff base, with the reaction of FHN-P (10 μM) with aminocaproic acid […] as a reference, and which was monitored by UV-visible differential spectroscopy. […]

A further assay deals with T1, K107M mutant RM aldolase (Oryctolagus cuniculus, UniProt P00883, K108M).
T1 construct: made in house
T1 sequence (P00883 1-364 K108M): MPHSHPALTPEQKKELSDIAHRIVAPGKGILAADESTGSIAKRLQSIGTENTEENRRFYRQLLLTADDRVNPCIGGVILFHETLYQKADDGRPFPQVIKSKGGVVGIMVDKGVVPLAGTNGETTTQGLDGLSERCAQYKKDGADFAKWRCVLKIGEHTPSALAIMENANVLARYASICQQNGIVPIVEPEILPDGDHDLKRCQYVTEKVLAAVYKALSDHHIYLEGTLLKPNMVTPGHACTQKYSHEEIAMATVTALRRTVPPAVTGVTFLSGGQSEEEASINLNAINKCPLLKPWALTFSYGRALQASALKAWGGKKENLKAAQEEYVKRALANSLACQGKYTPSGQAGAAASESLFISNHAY
Briefly: UV-visible differential spectroscopy (method A) with mutated aldolase K107M. The class given is binding, rabbit. The conditions noted are these: FHN-P 300 μM. The protocol: (§1) For method A, absorption spectra are recorded as a function of time, between 250 and 500 nm, or at wavelengths corresponding to maximum or minimum absorption. Measurements are begun by adding FHN-P at varying final concentrations (0.1-1 mM) in the TEA buffer containing a fixed concentration of aldolase (10 μM of subunits). Measured absorption spectra for the enzyme complex are corrected using the absorbance of the buffer, the FHN—P, and the enzyme (measured separately). The differential absorption spectra thus obtained are used to calculate the value of the constants that define the formation of the aldolase-inhibitor complex.
(§2) Every UV-visible differential test spectroscopy test using mutated aldolases (10 μM of subunits) is carried out using method A. • Monitored by Electrospray Ionization Mass Spectrometry (ESI-MS).
(§3) Residues of lysine 106, 146 and 229 residues are located at the active aldolase sites and thus are candidates for causing inactivation by forming a Schiff base with the FHN-P. In order to identify which lysine is responsible for the differential absorbances in the presence of FHN-P, sporadic mutations of these lysine residues were created and named: K107M (Research Collaboratory for Structural Bioinformatics Protein Databank), K146M (Blonski C. et al., 1997, Biochem. J. 323:71-77) and […] (Research Collaboratory for Structural Bioinformatics Protein Databank). […] UV-visible differential spectroscopy (method A) was used to examine formation of the enzyme complex for each sporadic mutation in the presence of a fixed concentration of FHN-P (300 μM).

The next assay concerns the target T2, K146M mutant RM aldolase (Oryctolagus cuniculus, UniProt P00883, K147M).
T2 construct: made in house
T2 sequence (P00883 1-364 K147M): T1 sequence (P00883 1-364 K108M) with M108K, K147M
The experiment in a line: UV-visible differential spectroscopy (method A) with mutated aldolase K146M. The class given is binding, rabbit. As to conditions: FHN-P 300 μM; for kapp: 431 nm. As to the method:
as §1, §2, §3

Usually Kd stands for the equilibrium constant for the complex coming apart. For `O=Cc1c(O)ccc2cc(OP(=O)(O)O)ccc12` [FHN-P, 5-formyl-6-hydroxy-2-naphthylphosphate], the “second-order constant k2nd” value in assay [1] (FHN-P 10 μM with aminocaproic acid) is 0.002 ± 0.00017 M⁻¹ s⁻¹. Also, the Kd in assay [1] (Schiff base, TEA buffer, read-out: dissociation constant Kd of FHN-P-aminocaproic acid) turned out to be 16 ± 3 mM. For the same compound, the values for the Residual specific activity at K107M mutant RM aldolase and at K146M mutant RM aldolase were 95% and “ud”, respectively. Besides, the “ΔA relative to 432 nm” value on K107M mutant RM aldolase (slow phase only) is 30%; at K146M mutant RM aldolase (first phase) it was 98%; on K146M mutant RM aldolase (second (slow) phase), 25%. For the same compound, the kapp on K107M mutant RM aldolase (slow phase only, 431 nm) was 0.0015 ± 0.0005 min⁻¹; on K146M mutant RM aldolase (first phase (associated with inhibition)), 0.005 ± 0.0005 min⁻¹; on K146M mutant RM aldolase (second (slow) phase) it was 0.0015 ± 0.0003 min⁻¹.

(Values after US7470821B2, “Aldolase-inhibiting aromatic compounds” (Valorisation-Recherche, Limited Partnership, priority 2003, dated 2008).)
